# Reference: PubChem BioAssay AID2060506 (Molecular Pharmacology Branch, DTP, NCI, 2025)
# Test system: 598228-144-R-J1-PDC complex spheroid viability
# Assay: Anticancer human tumor 598228-144-R-J1-PDC patient-derived serous endometrial adenocarcinoma cell line growth inhibition [GQUAD]
# Details: for IC50: curve of first compound; for viability, T/C: stronger effect = lower value
# Method in brief: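 Viability of tumor cells grown as complex spheroids with endothelial and stromal cells, exposed to drug combinations. Top concentration at or near clinical Cmax (else 10 microM), diluted in half-log increments.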
# [1] = second compound 0.0316 µM, first compound 0.0316 µM
# [2] = second compound 0.0316 µM, first compound 0.1 µM
# [3] = second compound 0.0316 µM, first compound 0.316 µM
# [4] = second compound 0.0316 µM, first compound 1 µM
# [5] = second compound 0.0316 µM, first compound 3.16 µM
# [6] = second compound 0.0316 µM, first compound 10 µM
# [7] = second compound 0.1 µM, first compound 0.0316 µM
# [8] = second compound 0.1 µM, first compound 0.1 µM
# [9] = second compound 0.1 µM, first compound 0.316 µM
# [10] = second compound 0.1 µM, first compound 1 µM
# [11] = second compound 0.1 µM, first compound 3.16 µM
# [12] = second compound 0.1 µM, first compound 10 µM
# [13] = second compound 0.316 µM, first compound 0.0316 µM
# [14] = second compound 0.316 µM, first compound 0.1 µM
# [15] = second compound 0.316 µM, first compound 0.316 µM
# [16] = second compound 0.316 µM, first compound 1 µM
# [17] = second compound 0.316 µM, first compound 3.16 µM
# [18] = second compound 0.316 µM, first compound 10 µM
# [19] = second compound 1 µM, first compound 0.0316 µM
# [20] = second compound 1 µM, first compound 0.1 µM
# [21] = second compound 1 µM, first compound 0.316 µM
# [22] = second compound 1 µM, first compound 1 µM
# [23] = second compound 1 µM, first compound 3.16 µM
# [24] = second compound 1 µM, first compound 10 µM
# [25] = second compound 3.16 µM, first compound 0.0316 µM
# [26] = second compound 3.16 µM, first compound 0.1 µM
# [27] = second compound 3.16 µM, first compound 0.316 µM
# [28] = second compound 3.16 µM, first compound 1 µM
# [29] = second compound 3.16 µM, first compound 3.16 µM
# [30] = second compound 3.16 µM, first compound 10 µM
# [31] = second compound 10 µM, first compound 0.0316 µM
# [32] = second compound 10 µM, first compound 0.1 µM
# [33] = second compound 10 µM, first compound 0.316 µM
# [34] = second compound 10 µM, first compound 1 µM
# [35] = second compound 10 µM, first compound 3.16 µM
# [36] = second compound 10 µM, first compound 10 µM
# 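Further: spheroids exposed to the agents for one week before reading.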
# 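Wherever viability, T/C is given: percent of vehicle DMSO control viability so 100% = untreated growth.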
structure (smiles),measurement,setting,value
CC1COCCN1c1cc(-c2ccnn2C)c2ccnc(-c3ccn[nH]3)c2n1 (stereo not drawn) + Cc1cnc(CNC(=O)c2c(=O)c3ccc(N4CCCN(C)CC4)nc3n3c2sc2ccccc23)cn1,IC50,second compound 0.0316 µM,0.0565 µM
same,IC50,second compound 0.1 µM,< 0.0316 µM
same,IC50,second compound 0.316 µM,0.066 µM
same,IC50,second compound 1 µM,0.0387 µM
same,IC50,second compound 3.16 µM,< 0.0316 µM
same,IC50,second compound 10 µM,< 0.0316 µM
same,"viability, T/C",[1],52%
same,"viability, T/C",[2],48.3%
same,"viability, T/C",[3],44.7%
same,"viability, T/C",[4],29.7%
same,"viability, T/C",[5],33.5%
same,"viability, T/C",[6],30.9%
same,"viability, T/C",[7],47.9%
same,"viability, T/C",[8],38.4%
same,"viability, T/C",[9],43%
same,"viability, T/C",[10],33.2%
same,"viability, T/C",[11],38.3%
same,"viability, T/C",[12],25.8%
same,"viability, T/C",[13],58.2%
same,"viability, T/C",[14],40.6%
same,"viability, T/C",[15],42.9%
same,"viability, T/C",[16],32.5%
same,"viability, T/C",[17],39.1%
same,"viability, T/C",[18],21.3%
same,"viability, T/C",[19],52.3%
same,"viability, T/C",[20],42%
same,"viability, T/C",[21],43.2%
same,"viability, T/C",[22],33%
same,"viability, T/C",[23],28.2%
same,"viability, T/C",[24],22.2%
same,"viability, T/C",[25],45.8%
same,"viability, T/C",[26],26.1%
same,"viability, T/C",[27],33.6%
same,"viability, T/C",[28],23.4%
same,"viability, T/C",[29],20.7%
same,"viability, T/C",[30],4.32%
same,"viability, T/C",[31],23.5%
same,"viability, T/C",[32],17.4%
same,"viability, T/C",[33],8.76%
same,"viability, T/C",[34],6.24%
same,"viability, T/C",[35],0.97%
same,"viability, T/C",[36],8.07%
CC1COCCN1c1cc(C2(O)CC3CCC(C2)O3)c2cnn(-c3ccn[nH]3)c2n1 (stereo not drawn) + Cc1cnc(CNC(=O)c2c(=O)c3ccc(N4CCCN(C)CC4)nc3n3c2sc2ccccc23)cn1,IC50,second compound 0.0316 µM,0.0425 µM
same,IC50,second compound 0.1 µM,< 0.0316 µM
same,IC50,second compound 0.316 µM,< 0.0316 µM
same,IC50,second compound 1 µM,< 0.0316 µM
same,IC50,second compound 3.16 µM,< 0.0316 µM
same,IC50,second compound 10 µM,< 0.0316 µM
same,"viability, T/C",[1],59.9%
same,"viability, T/C",[2],31.8%
same,"viability, T/C",[3],35.8%
same,"viability, T/C",[4],36.6%
same,"viability, T/C",[5],22.5%
same,"viability, T/C",[6],9.67%
same,"viability, T/C",[7],46%
same,"viability, T/C",[8],38%
same,"viability, T/C",[9],32.8%
same,"viability, T/C",[10],34.7%
same,"viability, T/C",[11],19.8%
same,"viability, T/C",[12],9.84%
same,"viability, T/C",[13],41%
same,"viability, T/C",[14],39.7%
same,"viability, T/C",[15],33%
same,"viability, T/C",[16],36.4%
same,"viability, T/C",[17],20.9%
same,"viability, T/C",[18],7.21%
same,"viability, T/C",[19],44.6%
same,"viability, T/C",[20],41.9%
same,"viability, T/C",[21],35.9%
same,"viability, T/C",[22],24%
same,"viability, T/C",[23],12.7%
same,"viability, T/C",[24],4.57%
same,"viability, T/C",[25],34.8%
same,"viability, T/C",[26],37.9%
same,"viability, T/C",[27],25.5%
same,"viability, T/C",[28],7.29%
same,"viability, T/C",[29],0.25%
same,"viability, T/C",[30],0.64%
same,"viability, T/C",[31],14.6%
same,"viability, T/C",[32],0.4%
same,"viability, T/C",[33],0.37%
same,"viability, T/C",[34],0.29%
same,"viability, T/C",[35],0.34%
same,"viability, T/C",[36],0.24%
CC1COCCN1c1cc(C2(S(C)(=N)=O)CC2)nc(-c2ccnc3[nH]ccc23)n1 (stereo not drawn) + Cc1cnc(CNC(=O)c2c(=O)c3ccc(N4CCCN(C)CC4)nc3n3c2sc2ccccc23)cn1,IC50,second compound 0.0316 µM,6.99 µM
same,IC50,second compound 0.1 µM,3.71 µM
same,IC50,second compound 0.316 µM,2.91 µM
same,IC50,second compound 1 µM,3.27 µM
same,IC50,second compound 3.16 µM,< 0.0316 µM
same,IC50,second compound 10 µM,< 0.0316 µM
same,"viability, T/C",[1],79.9%
same,"viability, T/C",[2],93.9%
same,"viability, T/C",[3],71.1%
same,"viability, T/C",[4],62.4%
same,"viability, T/C",[5],87.8%
same,"viability, T/C",[6],36.9%
same,"viability, T/C",[7],74%
same,"viability, T/C",[8],61.2%
same,"viability, T/C",[9],72.7%
same,"viability, T/C",[10],68.7%
same,"viability, T/C",[11],53.1%
same,"viability, T/C",[12],30.2%
same,"viability, T/C",[13],83.1%
same,"viability, T/C",[14],63.8%
same,"viability, T/C",[15],62.8%
same,"viability, T/C",[16],55.9%
same,"viability, T/C",[17],57.8%
same,"viability, T/C",[18],38.1%
same,"viability, T/C",[19],65.2%
same,"viability, T/C",[20],57.2%
same,"viability, T/C",[21],58.7%
same,"viability, T/C",[22],60.9%
same,"viability, T/C",[23],49.3%
same,"viability, T/C",[24],32.4%
same,"viability, T/C",[25],48.8%
same,"viability, T/C",[26],49.9%
same,"viability, T/C",[27],51.8%
same,"viability, T/C",[28],39.9%
same,"viability, T/C",[29],49.2%
same,"viability, T/C",[30],26.4%
same,"viability, T/C",[31],41.7%
same,"viability, T/C",[32],30.1%
same,"viability, T/C",[33],34.1%
same,"viability, T/C",[34],15.1%
same,"viability, T/C",[35],33.7%
same,"viability, T/C",[36],6%
COc1ccc([C@@H](O)c2cc(-c3ncnc4cc(N5CCOCC5)ccc34)c(F)cc2Cl)nn1 + Cc1cnc(CNC(=O)c2c(=O)c3ccc(N4CCCN(C)CC4)nc3n3c2sc2ccccc23)cn1,IC50,second compound 0.0316 µM,2.71 µM
same,IC50,second compound 0.1 µM,1.44 µM
same,IC50,second compound 0.316 µM,1.04 µM
same,IC50,second compound 1 µM,0.794 µM
same,IC50,second compound 3.16 µM,< 0.0316 µM
same,IC50,second compound 10 µM,< 0.0316 µM
same,"viability, T/C",[1],105%
same,"viability, T/C",[2],80.9%
same,"viability, T/C",[3],66.6%
same,"viability, T/C",[4],66.5%
same,"viability, T/C",[5],52.3%
same,"viability, T/C",[6],33.9%
same,"viability, T/C",[7],67%
same,"viability, T/C",[8],70.4%
same,"viability, T/C",[9],64.3%
same,"viability, T/C",[10],51.7%
same,"viability, T/C",[11],43.5%
same,"viability, T/C",[12],33%
same,"viability, T/C",[13],63.2%
same,"viability, T/C",[14],63.5%
same,"viability, T/C",[15],62.7%
same,"viability, T/C",[16],49.1%
same,"viability, T/C",[17],35.3%
same,"viability, T/C",[18],25.5%
same,"viability, T/C",[19],65.9%
same,"viability, T/C",[20],61.6%
same,"viability, T/C",[21],51.6%
same,"viability, T/C",[22],46.1%
same,"viability, T/C",[23],42%
same,"viability, T/C",[24],14.2%
same,"viability, T/C",[25],50%
same,"viability, T/C",[26],36.8%
same,"viability, T/C",[27],41.9%
same,"viability, T/C",[28],31.6%
same,"viability, T/C",[29],20.9%
same,"viability, T/C",[30],0.39%
same,"viability, T/C",[31],35.2%
same,"viability, T/C",[32],40.2%
same,"viability, T/C",[33],19.1%
same,"viability, T/C",[34],0.71%
same,"viability, T/C",[35],0.33%
same,"viability, T/C",[36],0.26%
